The values below come from patent publication US8106152B2, “Antimicrobial composition” (Dairy Australia Limited, priority 2003, dated 2012).

The test system of series [1] is Streptococcus mutans Ingbritt. Kind of series: Antibacterial planktonic assay (microplate growth assay). Type of series: cell-based. To be noted: for MIC: pH 7.20, tested singly or in combination with a 1:1 ratio of zinc or calcium; for inhibition of S. mutans growth: growth pH 7.20, up to concentrations of 300 μM. The protocol: The oral opportunistic pathogen Streptococcus mutans Ingbritt was used in this study as an indicator strain. The antibacterial assay was conducted in 96 well plates and bacterial growth continuously monitored over 40 h, as previously described (Malkoski et al., 2001). Briefly, bacteria were cultured in Todd Hewitt Broth (36.4 g/l) containing Yeast extract (5.0 g/l) and 100 mM potassium phosphate with a pH of 6.3 or 7.2. The bacterial inocula were prepared by diluting exponentially growing cells in growth medium to give 2.7×10^4 viable cells/ml. In the bacterial growth assays test wells contained κ-casein-A(106-169) or κ-casein-B(106-169) at concentrations between 20 and 120 μM. these peptides were also tested in combination with zinc or calcium ions to give ratios of […]:divalent metal ion of 1:1 to 1:4. Synthetic […]κ-casein-A(138-158) and […]κ-casein-B(138-158) peptides were also tested in this assay. The plates were incubated at 37° C. and growth determined by measuring optical density (OD) at 620 nm using an iEMS microplate reader (Labsystems, OY Research Technologies Division).

Series [2] relates to plaque. To be noted: double blind crossover trial, Addy et al., 1980; cited from earlier work.
Series [3] relates to S. mutans Ingbritt biofilm. Kind of series: Viability of S. mutans cultured as a biofilm in constant depth film fermenter (CDFF). Type of series: cell-based, Streptococcus mutans. The protocol: A constant depth film fermenter (CDFF: Wimmpenny, Cardiff University, UK) was used for biofilm formation. The CDFF consists of a stainless steel disc rotating at a constant speed of 3 rpm containing 15 polytetrafluoroethylene (PTFE) pans each of which contain 5 plugs of 4.5 mm in diameter. The plugs were set to 0.4 mm below the surface of the steel disc. Inbuilt scrapers were used to maintain a constant biofilm depth of 0.4 mm. The scrapers are attached so that the stainless steel disc rotates under them; the scrapers are spring loaded so that they are pressed down against the pans. An anaerobic atmosphere was maintained in the CDFF by continuous gassing with 5% CO2 in N2. The CDFF was housed in a modified CO2 incubator, which was used to maintain a constant culture temperature of 37° C. A S. mutans Ingbritt batch culture in Todd Hewitt (35.4 g/l), Yeast Extract (8 g/L) broth (THYE) in exponential growth phase was used to inoculate the CDFF at a flow rate of 30 ml/h for 5 h. The growth media, THYE containing 0.1% (w/v) sucrose, was then pumped into the CDFF at a constant flow rate of 40 ml/h.
At specified times prior to and after treatment with solutions, plugs were removed from the CDFF, washed to remove planktonic bacteria and viable counts were performed to determine bacterial numbers. To assess the effect on cell viability of various solutions growth media addition to the CDFF was suspended for 10 min and replaced by the solution at a flow rate of 30 ml/h. After 10 min growth media addition was resumed. Solutions tested in the CDFF were: 2 mM Tris-HCl pH6.0; 10 mg/ml Kappacin preparation (see above) in 2 mM Tris-HCl pH 6.0; 10 mg/ml Kappacin preparation (see above) and 20 mM ZnCl2 in 2 mM Tris-HCl pH 6.0; 20 mM ZnCl2 in 2 mM Tris-HCl pH 6.0; 2 mM ZnCl2 in 2 mM Tris-HCl pH 6.0 and 0.05% chlorhexidine digluconate in deionized water.

Series [4] deals with plaque. To be noted: mouthrinse, Silness and Loe plaque index, Giertsen et al. (1988); cited from earlier work.
Series [5] has as its system supragingival dental plaque. Kind of series: Clinical antiplaque trial, mouthrinse as only oral hygiene, Silness and Loe Plaque Index. Format: in vivo, human. The source says:
Ten subjects were recruited for the double-blind, cross-over study. Subjects were recruited from undergraduate students enrolled at the School of Dental Science, The University of Melbourne. The group consisted of 6 females and 4 males with a mean age of 21 years. Subjects were examined prior to the commencement of the trial and all were gauged to be of good health, having dentitions without unrestored carious lesions or evidence of moderate to severe gingivitis. The subjects had not used any dentifrices containing antimicrobial agents prior to commencement of the trial. Approval was obtained from the Human Research Ethics Committee of the University of Melbourne.
At the commencement of the trial, the subjects were instructed to cease all other forms of daily oral hygiene practices and to solely rely on the use of the allocated mouthrinse solution. Four solutions were tested as mouthrinses in this investigation: Solution A: Deionized water. B: 1% (w/v) Kappacin preparation in deionized water. C: 20 mM ZnCl in deionized water. D: 1% (w/v) Kappacin preparation and 20 mM ZnCl in deionized water. The pH of all solutions was adjusted to 6.9±0.1 using KOH. Subjects were instructed to rinse three times daily: morning, mid-day and evening with 15 ml of solution for a duration of one minute. Each trial session was for four days with a clinical evaluation at the end of the trial. The Silness and Loe Plaque Index (PI) was used to evaluate plaque (Silness and Loe, 1964). The gingival area of each tooth surface (distal, buccal, mesial and lingual) was given a score from 0-3. All teeth excluding third molars were scored at the conclusion of the trial. Following each trial session the subjects resumed their normal oral hygiene habits for a minimum of seven days prior to the next trial. Data were analysed using the nonparametric Wilcoxon rank test.

The test system of series [6] is Streptococcus mutans Ingbritt. To be noted: S. mutans, pH 6.28; previous study (Malkoski et al., 2001); cited from earlier work.

Like-named read-outs stand apart in the source and are kept apart here. Non-standard residues stand in square brackets, D forms with d. No end group written: not given here. pS = N[C@@H](COP(=O)(O)O)C(=O)O

Turning to `[Ca+2].[Cl-].[Cl-]` [CaCl2], the MIC (in general, the lowest concentration found to suppress growth) in series [1] (S. mutans) is “NI (No inhibition at concentrations up to 1 mM)”. Also, the “effect on S. mutans growth” value in series [1] (alone, at concentrations up to 1 mM) is reported as “no effect”.

With `CC[C@H](C)[C@H](NC(=O)[C@@H](NC(=O)[C@H](CCC(=O)O)NC(=O)[C@@H]1CCCN1C(=O)[C@H](COP(=O)(O)O)NC(=O)[C@H](C)NC(=O)[C@H](CCC(=O)O)NC(=O)[C@H](CC(C)C)NC(=O)[C@@H](NC(=O)[C@H](C)NC(=O)[C@@H](NC(=O)[C@@H](NC(=O)[C@H](CO)NC(=O)[C@H](CCC(=O)O)NC(=O)[C@@H](NC(=O)[C@H](C)N)C(C)C)[C@@H](C)O)C(C)C)[C@@H](C)O)C(C)C)C(=O)N[C@@H](CCC(=O)O)C(=O)N[C@@H](CO)C(=O)N1CCC[C@H]1C(=O)N1CCC[C@H]1C(=O)N[C@@H](CCC(=O)O)C(=O)O` [Ser(P)^149κ-casein-B(138-158), Ala Val Glu Ser Thr Val Ala Thr Leu Glu Ala Ser(P) Pro Glu Val Ile Glu Ser Pro Pro], the “calculated MIC” value in series [1] (S. mutans, growth pH 6.28, microplate growth assay) is 44 µM. Moreover, in series [1], the “inhibition of S. mutans growth” value was “no inhibition”.

On to `O=C([O-])CC(O)(CC(=O)[O-])C(=O)[O-].O=C([O-])CC(O)(CC(=O)[O-])C(=O)[O-].[Zn+2].[Zn+2].[Zn+2]` [Zinc citrate], for which the “reduction of plaque accumulation (Turesky plaque index)” value in the series on plaque [2] was 5-8%.

Turning to `[Cl-].[Cl-].[Zn+2]` [ZnCl2], the “decrease in viable cell counts” value in series [3] (20 mM ZnCl2 in 2 mM Tris-HCl pH 6.0) worked out at 92%. For the same compound, the “reduction of viable count” value in series [3] (5 ml of 2 mM ZnCl2 in 2 mM Tris-HCl pH 6.0) is listed as approximately 60%. In addition, the MIC in series [1] (S. mutans) stood at 200 µM. Moreover, in the series with plaque [4], the “increase in the tooth surfaces with no plaque compared with a water control” value was 9%. Further, the “plaque accumulation relative to water or other treatments (Wilcoxon rank test, posterior teeth plaque index scores)” value in series [5] (four days mouthrinse as only oral hygiene) is “significantly (P<0.05) reduced”. Moreover, the “decrease in mean whole mouth plaque index scores” value in series [5] (four days, 20 mM zinc chloride mouthrinse) came to 6%. The “decrease in the mean Plaque Index Score of posterior teeth compared with water control” value in series [5] (four days, 15 ml rinse three times daily, 1% (w/v) Kappacin and/or 20 mM ZnCl2, pH 6.9) is on record as 9%.

As for `[H]/N=C(\N/C(=N/[H])NCCCCCCNC(=N)NC(=N)Nc1ccc(Cl)cc1)Nc1ccc(Cl)cc1` [chlorhexidine digluconate], the “decrease in S. mutans cell viability” value in series [3] is 48%. The “time after treatment with no significant difference to pre-treatment viability” value in series [3] (0.05% (w/v) solution) stood at 3.5 h.

“AVESTVATLED[pS]PEVIESPP [Ser(P)^149κ-casein-A(138-158)]”: the MIC entry was “NI (No inhibition at concentrations up to 1 mM)” in series [1] (S. mutans) and 26 µM in series [6]. The “inhibition of S. mutans growth” value in series [1] is “no inhibition”.
